Measured values reported in patent US10858360B2, “Tricyclic gyrase inhibitors” (priority 2011, dated 2020).
Converted amounts (≈) assume the structure as drawn.

Legend:
Type in all cases: cell-based
S. pneumoniae ATCC 51916 = test: MIC, S. pneumoniae ATCC 51916; details: for MIC: Streptococcus pneumoniae, ATCC51916, Spn = S. pneumoniae
[1] = system: F. tularensis holarctica LVS; test: microbe, parasite or virus in culture; details: for MIC Ft: Ft = F. tularensis, strain not given; for MIC: Francisella tularensis, read-out: MIC Ft
A. baumannii ATCC 19606 = test: MIC, A. baumannii ATCC 19606; details: strain not given; for MIC: Acinetobacter baumannii, ATCC19606, Ab = A. baumannii
P. aeruginosa ATCC 15692 = test: MIC, P. aeruginosa ATCC 15692; details: for MIC: Pseudomonas aeruginosa, ATCC15692, Pa = P. aeruginosa
[2] = system: B. thailandensis ATCC E264; test: microbe, parasite or virus in culture; details: for MIC: Burkholderia thailandensis, ATCCE264, read-out: MIC Bt
[3] = system: K. pneumoniae ATCC 700603; test: MIC, K. pneumoniae ATCC 700603; details: for MIC Kpn: Kpn = K. pneumoniae; for MIC: Klebsiella pneumoniae, ATCC700603, read-out: MIC Kpn
E. coli ATCC 25922 = test: MIC, E. coli ATCC 25922; details: for MIC: Escherichia coli
S. aureus ATCC 13709 = test: MIC, S. aureus ATCC 13709 (Alamar Blue broth microdilution); details: for MIC: Staphylococcus aureus
Y. pestis CO92 pgm- = test: microbe, parasite or virus in culture; details: for MIC Yp: Yp = Y. pestis; for MIC: Yersinia pestis, CO92PGM, read-out: MIC Yp
[4] = E. coli, Alamar Blue read after overnight incubation at 35° C.
[5] = S. aureus, Alamar Blue read after overnight incubation at 35° C.
[6] = ATCC25922, E. coli, Alamar Blue read after overnight incubation at 35° C.
[7] = ATCC25922, Ec = E. coli, strain not given
[8] = ATCC13709, S. aureus, Alamar Blue read after overnight incubation at 35° C.

| Compound | MIC Spn (S. pneumoniae ATCC 51916) | MIC Ft [1] | MIC Ab (A. baumannii ATCC 19606) | MIC Pa (P. aeruginosa ATCC 15692) | MIC Bt [2] | MIC Kpn [3] | MIC Ec (E. coli ATCC 25922; [4]) | MIC Ec (E. coli ATCC 25922; Ec = E. coli, strain not given) | MIC Sa (S. aureus ATCC 13709; [5]) | MIC Sa (S. aureus ATCC 13709; Sa = S. aureus) | MIC Yp (Y. pestis CO92 pgm-) | other results |
| --- | --- | --- | --- | --- | --- | --- | --- | --- | --- | --- | --- | --- |
| CNc1cc(F)cc2c1[nH]c1nc(Oc3cnc(C)nc3)nc(N3CC4CC3C[C@@H]4N)c12 (stereo partly drawn) [4.131] | ≤0.5 µg/mL | ≤0.5 µg/mL | ≤0.5 µg/mL | 1 µg/mL (≈ 2.3 µM) | ≤0.5 µg/mL | 2 µg/mL (≈ 4.6 µM) | ≤0.5 µg/mL | ≤0.5 µg/mL | ≤0.5 µg/mL | ≤0.5 µg/mL | ≤0.5 µg/mL | – |
| CNc1cc(F)cc2c1[nH]c1nc(Oc3cnc(C)nc3)nc(N3CC4CCC(N)C4C3)c12 (stereo not drawn) [4.076] | ≤0.5 µg/mL | 2 µg/mL (≈ 4.46 µM) | ≤0.5 µg/mL | 4 µg/mL (≈ 8.92 µM) | 1 µg/mL (≈ 2.23 µM) | 4 µg/mL (≈ 8.92 µM) | ≤0.5 µg/mL | ≤0.5 µg/mL | ≤0.5 µg/mL | ≤0.5 µg/mL | ≤0.5 µg/mL | – |
| CNc1cc(F)cc2c1[nH]c1nc(Oc3cnc(C)nc3)nc(N3CCC4(CC4N)C3)c12 (stereo not drawn) [4.066] | – | – | – | – | – | – | – | – | – | – | – | MIC (S. pneumoniae ATCC 51916): ≤ 0.5 µg/mL; MIC [1]: 1 µg/mL (≈ 2.3 µM); MIC (A. baumannii ATCC 19606): ≤ 0.5 µg/mL; MIC (P. aeruginosa ATCC 15692): 2 µg/mL (≈ 4.6 µM); MIC [2]: ≤ 0.5 µg/mL; MIC [3]: 2 µg/mL (≈ 4.6 µM); MIC (E. coli ATCC 25922; [6]): ≤ 0.5 µg/mL; MIC (E. coli ATCC 25922; [7]): ≤ 0.5 µg/mL; MIC (S. aureus ATCC 13709; [8]): ≤ 0.5 µg/mL; MIC (S. aureus ATCC 13709; ATCC13709, Sa = S. aureus): ≤ 0.5 µg/mL; MIC (Y. pestis CO92 pgm-): ≤ 0.5 µg/mL |
| CNc1cc(F)cc2c1[nH]c1nc(Oc3cnc4cccnc4c3)nc(N3CC4(CCC4N)C3)c12 (stereo not drawn) [4.045] | ≤0.5 µg/mL | 2 µg/mL (≈ 4.25 µM) | ≤0.5 µg/mL | 4 µg/mL (≈ 8.5 µM) | 1 µg/mL (≈ 2.13 µM) | 8 µg/mL (≈ 17 µM) | ≤0.5 µg/mL | ≤0.5 µg/mL | ≤0.5 µg/mL | ≤0.5 µg/mL | ≤0.5 µg/mL | – |
| CNc1cc(F)cc2c1[nH]c1nc(Oc3cnc(C)nc3)nc(N3CCC4(CCC4N)C3)c12 (stereo not drawn) [4.117] | ≤0.5 µg/mL | 1 µg/mL (≈ 2.23 µM) | ≤0.5 µg/mL | 1 µg/mL (≈ 2.23 µM) | ≤0.5 µg/mL | 2 µg/mL (≈ 4.46 µM) | ≤0.5 µg/mL | ≤0.5 µg/mL | ≤0.5 µg/mL | ≤0.5 µg/mL | ≤0.5 µg/mL | – |
| CNc1cc(F)cc2c1[nH]c1nc(Oc3cnc(C)nc3)nc(N3CC(N)C4(CC4)C3)c12 (stereo not drawn) [4.069] | ≤0.5 µg/mL | 2 µg/mL (≈ 4.6 µM) | ≤0.5 µg/mL | 4 µg/mL (≈ 9.21 µM) | ≤0.5 µg/mL | 2 µg/mL (≈ 4.6 µM) | – | ≤0.5 µg/mL | – | ≤0.5 µg/mL | ≤0.5 µg/mL | – |
| CNc1cc(F)cc2c1[nH]c1nc(Oc3cnc(C)nc3)nc(N3C[C@H]4CCN[C@H]4C3)c12 [4.103] | ≤0.5 µg/mL | 1 µg/mL (≈ 2.3 µM) | ≤0.5 µg/mL | 2 µg/mL (≈ 4.6 µM) | ≤0.5 µg/mL | 2 µg/mL (≈ 4.6 µM) | ≤0.5 µg/mL | ≤0.5 µg/mL | ≤0.5 µg/mL | ≤0.5 µg/mL | ≤0.5 µg/mL | – |
| CNc1cc(F)cc2c1[nH]c1nc(Oc3cnc(C)nc3)nc(N3CC4CC(N)C4C3)c12 (stereo not drawn) [4.084] | ≤0.5 µg/mL | ≤0.5 µg/mL | ≤0.5 µg/mL | 1 µg/mL (≈ 2.3 µM) | ≤0.5 µg/mL | 4 µg/mL (≈ 9.21 µM) | ≤0.5 µg/mL | ≤0.5 µg/mL | ≤0.5 µg/mL | ≤0.5 µg/mL | ≤0.5 µg/mL | – |
| CNc1cc(F)cc2c1[nH]c1nc(Oc3ccc4cncnc4c3)nc(N3CC4CC(N)C4C3)c12 (stereo not drawn) [4.365] | ≤0.5 µg/mL | 1 µg/mL (≈ 2.13 µM) | ≤0.5 µg/mL | 1 µg/mL (≈ 2.13 µM) | ≤0.5 µg/mL | 4 µg/mL (≈ 8.5 µM) | ≤0.5 µg/mL | ≤0.5 µg/mL | ≤0.5 µg/mL | ≤0.5 µg/mL | ≤0.5 µg/mL | – |
| CNc1cc(F)cc2c1[nH]c1nc(Oc3cnc4cccnc4c3)nc(N3CC4C(N)C4C3)c12 (stereo not drawn) [4.035] | – | – | – | – | – | – | – | – | – | – | – | MIC (S. pneumoniae ATCC 51916): ≤ 0.5 µg/mL; MIC [1]: 1 µg/mL (≈ 2.19 µM); MIC (A. baumannii ATCC 19606): ≤ 0.5 µg/mL; MIC (P. aeruginosa ATCC 15692): 4 µg/mL (≈ 8.76 µM); MIC [2]: ≤ 0.5 µg/mL; MIC [3]: 2 µg/mL (≈ 4.38 µM); MIC (E. coli ATCC 25922; [6]): ≤ 0.5 µg/mL; MIC (E. coli ATCC 25922; [7]): ≤ 0.5 µg/mL; MIC (S. aureus ATCC 13709; [8]): ≤ 0.5 µg/mL; MIC (S. aureus ATCC 13709; ATCC13709, Sa = S. aureus): ≤ 0.5 µg/mL; MIC (Y. pestis CO92 pgm-): ≤ 0.5 µg/mL |
